Measurements taken from publication PMC5442124 (Scientific Reports, 2017).

Columns and labels:
[1] = Elimination of DDTs in T. tubifex after transfer to un-spiked sediment; assay type: in vivo; details: elimination experiment in un-spiked sediment
Protocol: (§1) Environmentally relevant concentration exposure was conducted according to Organization for Economic Cooperation and Development (OECD section 305 and 315) test guidelinesn, [52]. Tubifex tubifex (Oligochaeta, Tubificidae) was chosen as prey, which could accumulate DDTs from sediment and transfer them to carp (Cyprinus carpio). T. tubifex is one of the most widespread and ubiquitous groups, which was considered to be a good bio-indicator[53], [54]. Carp are omnivorous demersal fish in fresh water ecosystems, which can serve as bio-indicators of environmental contaminants and play significant roles in assessing potential risk[44]. Adult T. tubifex and carp (2.0 ± 0.2 g, about 5 cm in length, ignore the gender) were obtained from Guan Yuan market (Beijing, China) and acclimatized in the laboratory for 2 weeks. T. tubifex (80 g) and ten fish were added into the sediment-water system for the exposure experiment. Twenty-seven glass aquariums with spiked sediment were cultivated at 14 h/10 h photoperiods and at 20 ± 2 °C for 28 days (nine aquariums were used to analyze the individual fish and T. tubifex worms, eighteen aquariums were used to analyze the tissue distribution and toxic effects). The overlying water was gently aerated and unchanged. Overlying water, fish (one from each aquariums), worms (about 1 g) and sediment were sampled on the 1st, 3ed, 5th, 9th, 14th, 21st, and 28th day. At the end of bioaccumulation experiments, all the fish and worms were transferred to un-spiked sediment for elimination experiments, respectively. Overlying water, fish (one from each aquariums), worms (about 1 g) and sediment were sampled on the 1st, 3ed, 5th, 7th, and 10th day. […] Fish were euthanized with an ice/water mixture.
(§2) The different tissues/organs of carp were extracted with different methods. Details of the extraction process please refer to the Supplementary Material. The lipid content of animals was measured according to Bligh and Dyer[55]. […] Details please refer to the Supplemental Material.

[2] = Bioaccumulation of DDTs in T. tubifex in DDT spiked-sediment microcosm; assay type: in vivo; details: for concentration at 28 day: Tubifex tubifex, whole worm (wet weight), other: exposure in spiked sediment-water system, day 28; for concentration at 28 day / maximum concentration in T. tubifex: treatment group; for maximum concentration in T. tubifex: fifth day
Protocol: (§3) The sediment was prepared in a glass aquarium with 3.6 kg soil (collected from China Agricultural University, and the physicochemical properties of the soil were as follows: clay, 34.8 ± 0.1%; silt, 10.0 ± 2.8%; sand, 55.2 ± 2.8%; organic matter, 24.4 ± 0.8 g/kg; and pH, 7.74 ± 0.05.) and 16 L de-chlorinated tap water, and incubated for seven days. The overlying water was discarded, and 400 g sediment (dry weight) was spiked with o,p’-DDT (50 ng/μL, 1600 μL) and p,p’-DDT (50 ng/μL, 1600 μL) in acetone. After the solvent was volatilized, the sediment was blended with the 3.6 kg sediment (dry weight) thoroughly. Dechlorinated tap water was added, and system was allowed to equilibrate for 48 h.
as §1
The control treatments (twenty-seven glass aquariums: nine aquariums were used to analyze the individual fish and T. tubifex worms, eighteen aquariums were used to analyze the tissue distribution and toxic effects) were composed of worms, fish and un-spiked sediment. The cultivation, sample time and dissection procedures were the same to the exposure experiments.
as §2

[3] = Bioaccumulation of DDTs in carp and carp tissues/organs in DDT spiked-sediment microcosm (food web); assay type: in vivo, Cyprinus carpio; details: treatment group; for concentration at 9 day / concentration at 28 days: Cyprinus carpio (carp), other: spiked sediment-water system with T. tubifex as prey; for concentration at 9 day: whole fish (wet weight), whole carp, read-out: concentration in carp at steady state; for maximum concentration in gastrointestinal tract: first 5 days; for concentration at 28 days: brain, end of the experiments
Protocol: as §3
as §1, with “Tubifex tubifex (Oligochaeta, Tubificidae) was chosen as prey, which could accumulate DDTs from sediment and transfer them to carp (Cyprinus carpio).” left out
as §2

[4] = Elimination of DDTs from carp and carp tissues/organs after transfer to un-spiked sediment; assay type: in vivo, Cyprinus carpio; details: for elimination percentage in heart: carp heart; for percentage eliminated from brain: carp brain; for percentage eliminated from brain / percentage eliminated from kidney: end of experiments; for elimination percentage from gallbladder: carp gallbladder; for percentage eliminated from kidney: carp kidney
Protocol: as §1, §2

[5] = rainbow trout exposed in water; cited from earlier work
[6] = design: method as in PMID 14194764; details: after 6 days’ dietary exposure to DDT (1500 μg/g); cited from earlier work
aquatic life = test system: aquatic life; design: method as in earlier work; details: Canadian Sediment Quality Guidelines for the protection of aquatic life; cited from earlier work

Structure (SMILES) | elimination efficiency in T. tubifex [1] [%] | maximum concentration in T. tubifex [2] [ng/gwwt] | concentration in brain (maximum) ([3]; carp, 9th day) [ng/gwwt] | elimination percentage in heart [4] [%] | concentration at 28 days ([3]; carp) [ng/g] | percentage eliminated from brain [4] [%] | elimination percentage from gallbladder [4] [%] | percentage eliminated from kidney [4] [%] | further results
Clc1ccc(C(c2ccccc2Cl)C(Cl)(Cl)Cl)cc1 (centres unmarked) [o,p’-DDT] | 65.7 | 74.6 ± 1.8 | 40.3 ± 1.8 | 51.9 | – | – | – | – | concentration at 28 day [2]: 5.6 ± 0.1 ng/g; concentration at 9 day ([3]; 9th day): 39.1 ± 0.3 ng/g; maximum concentration in kidney ([3]; carp, 9th day): 96.2 ± 2.0 ng/gwwt; maximum concentration in gastrointestinal tract ([3]; carp): 40.9 ± 0.9 ng/gwwt
Oc1c(Cl)c(Cl)c(Cl)c(Cl)c1Cl [pentachlorophenol] | – | – | – | – | – | – | – | – | dose eliminated in feces and bile [5]: 30%; dose eliminated in urine [5]: 20%; dose eliminated through the gills [5]: 50%
Clc1ccc(C(c2ccc(Cl)cc2)C(Cl)(Cl)Cl)cc1 [DDT, Dichlorodiphenyltrichloroethane] | – | – | – | – | – | – | – | – | ratio DDT:DDD:DDE detected in the livers of rats [6]: approximately 3; effects range-low (ERL) value in sediments (aquatic life): 1 ng/g
Clc1ccc(C(c2ccc(Cl)cc2)C(Cl)Cl)cc1 [p,p’-DDD] | 58.2 | – | – | 69.6 | 68.4 ± 0.6 | 61.4 | 64.1 | 63.9 | maximum concentration in kidney ([3]; carp, 28th day): 89.9 ± 3.7 ng/gwwt
ClC(Cl)=C(c1ccc(Cl)cc1)c1ccccc1Cl [o,p’-DDE] | 39.5 | 2.1 ± 0.2 | 3.1 ± 0.1 | – | – | 55.0 | 24.1 | 47.5 | –
Clc1ccc(C(c2ccc(Cl)cc2)C(Cl)(Cl)Cl)cc1 [p,p’-DDT] | 73.6 | 165.5 ± 2.7 | 49.1 ± 1.0 | – | – | – | – | – | concentration at 28 day [2]: 18.4 ± 2.2 ng/g; concentration at 9 day ([3]; 9th day): 57.3 ± 3.1 ng/g; maximum concentration in kidney ([3]; carp, 9th day): 124.0 ± 2.6 ng/gwwt; maximum concentration in gastrointestinal tract ([3]; carp): 43.2 ± 0.5 ng/gwwt
ClC(Cl)=C(c1ccc(Cl)cc1)c1ccc(Cl)cc1 [p,p’-DDE] | 25.7 | 21.7 ± 0.8 | – | 59.9 | 41.6 ± 0.5 | 52.8 | 50.8 | 48.7 | maximum concentration in T. tubifex, control group ([2]; control group (un-spiked sediment), 14th day): 28.2 ± 1.1 ng/gwwt; highest concentration in kidney ([3]; carp, 21st day): 46.9 ± 0.6 ng/gwwt; maximum concentration in muscle ([3]; carp, 21st day): 11.7 ± 2.6 ng/gwwt
Clc1ccc(C(c2ccccc2Cl)C(Cl)Cl)cc1 (centres unmarked) [o,p’-DDD] | 49.0 | – | – | 72.5 | 45.7 ± 0.3 | 65.5 | 66.9 | 65.4 | maximum concentration in kidney ([3]; carp, 28th day): 73.5 ± 1.9 ng/gwwt
